Data: ChEMBL document CHEMBL1153587, “Design, synthesis and biological evaluation of novel nitrogen and sulfur containing hetero-1,4-naphthoquinones as potent antifungal and antibacterial agents” (2009)
Converted amounts (≈) assume the structure as drawn.

Key:
Format in all cases: functional
[1] = tested on: Escherichia coli; experiment: Antibacterial activity against Escherichia coli after 24 hrs by broth microdilution method
[2] = tested on: Staphylococcus aureus; experiment: Antibacterial activity against Staphylococcus aureus ATCC 25923 after 24 hrs by broth microdilution method
[3] = tested on: Klebsiella pneumoniae; experiment: Antibacterial activity against Klebsiella pneumoniae ATCC 27736 after 24 hrs by broth microdilution method
[4] = tested on: Candida albicans; experiment: Antifungal activity against Candida albicans after 48 hrs by broth microdilution method
[5] = tested on: Cryptococcus neoformans; experiment: Antifungal activity against Cryptococcus neoformans after 72 hrs by broth microdilution method
[6] = tested on: Sporothrix schenckii; experiment: Antifungal activity against Sporothrix schenckii after 72 hrs by broth microdilution method
[7] = tested on: Trichophyton mentagrophytes; experiment: Antifungal activity against sTrichophyton mentagrophytes after 96 hrs by broth microdilution method
[8] = tested on: Aspergillus fumigatus; experiment: Antifungal activity against Aspergillus fumigatus after 72 hrs by broth microdilution method
[9] = tested on: Candida parapsilosis; experiment: Antifungal activity against Candida parapsilosis ATCC 22019 after 48 hrs by broth microdilution method; details: Lodderomyces parapsilosis, ATCC 22019, 48 h

## NC[C@H]1O[C@H](O[C@H]2[C@H](O)[C@@H](O[C@H]3O[C@H](CO)[C@@H](O)[C@H](N)[C@H]3O)[C@H](N)C[C@@H]2N)[C@H](N)C[C@@H]1O [TOBRAMYCIN]
[1]
  MIC: 0.5 µg/mL (≈ 1.07 µM)
[2]; ATCC 25923, 24 h
  MIC: 0.25 µg/mL (≈ 0.535 µM)
[3]; ATCC 27736, 24 h
  MIC: 1 µg/mL (≈ 2.14 µM)

## O=C1C(Cl)=C(Nc2ccccc2)C(=O)c2ccccc21
[4]
  MIC: > 50 µg/mL
[5]
  MIC: > 50 µg/mL
[6]
  MIC: > 50 µg/mL
[7]
  MIC: > 50 µg/mL
[8]
  MIC: > 50 µg/mL
[9]
  MIC: > 50 µg/mL
[1]
  MIC: > 50 µg/mL
[2]; ATCC 25923, 24 h
  MIC: > 50 µg/mL
[3]; ATCC 27736, 24 h
  MIC: > 50 µg/mL

## O=C1C(Nc2ccc(O)cc2)=C(Sc2ccccc2)C(=O)c2ccccc21
[1]
  MIC: > 50 µg/mL
[2]; ATCC 25923, 24 h
  MIC: 50 µg/mL (≈ 134 µM)
[3]; ATCC 27736, 24 h
  MIC: > 50 µg/mL

## Nc1c2ccccc2nc2c(=O)c3ccccc3c(=O)c=2n1-c1ccccc1
[4]
  MIC: 25 µg/mL (≈ 68.4 µM)
[5]
  MIC: 25 µg/mL (≈ 68.4 µM)
[6]
  MIC: > 50 µg/mL
[7]
  MIC: 12.5 µg/mL (≈ 34.2 µM)
[8]
  MIC: > 50 µg/mL
[9]
  MIC: 25 µg/mL (≈ 68.4 µM)

## C[C@@H]1[C@H](O)[C@@H](C)/C=C/C=C/C=C/C=C/C=C/C=C/C=C/[C@H](O[C@@H]2O[C@H](C)[C@@H](O)[C@H](N)[C@@H]2O)C[C@@H]2O[C@](O)(C[C@@H](O)C[C@@H](O)[C@H](O)CC[C@@H](O)C[C@@H](O)CC(=O)O[C@H]1C)C[C@H](O)[C@H]2C(=O)O [AMPHOTERICIN B]
[4]
  MIC: 0.39 µg/mL (≈ 0.422 µM)
[5]
  MIC: 0.78 µg/mL (≈ 0.844 µM)
[7]
  MIC: 1.56 µg/mL (≈ 1.69 µM)

## O=C1C(Cl)=C(Sc2cccc3ccccc23)C(=O)c2ccccc21
[1]
  MIC: 25 µg/mL (≈ 71.3 µM)
[2]; ATCC 25923, 24 h
  MIC: > 50 µg/mL
[3]; ATCC 27736, 24 h
  MIC: > 50 µg/mL

## N#Cc1ccccc1NC1=C(Nc2ccccc2C#N)C(=O)c2ccccc2C1=O
[4]
  MIC: > 50 µg/mL
[5]
  MIC: 25 µg/mL (≈ 64 µM)
[6]
  MIC: > 50 µg/mL
[7]
  MIC: > 50 µg/mL
[8]
  MIC: > 50 µg/mL
[9]
  MIC: 50 µg/mL (≈ 128 µM)

## N#Cc1ccccc1NC1=C(Cl)C(=O)c2ccccc2C1=O
[4]
  MIC: 50 µg/mL (≈ 162 µM)
[5]
  MIC: 50 µg/mL (≈ 162 µM)
[6]
  MIC: > 50 µg/mL
[7]
  MIC: > 50 µg/mL
[8]
  MIC: > 50 µg/mL
[9]
  MIC: 25 µg/mL (≈ 81 µM)

## O=C1C(Sc2cccc3ccccc23)=C(N(c2ccccc2)c2ccccc2)C(=O)c2ccccc21
[4]
  MIC: 25 µg/mL (≈ 51.7 µM)
[5]
  MIC: > 50 µg/mL
[6]
  MIC: > 50 µg/mL
[7]
  MIC: 50 µg/mL (≈ 103 µM)
[8]
  MIC: 50 µg/mL (≈ 103 µM)
[9]
  MIC: > 50 µg/mL

## NYSTATIN
[4]
  MIC: 7.8 µg/mL
[5]
  MIC: 3.5 µg/mL
[6]
  MIC: 13.2 µg/mL

## GENTAMICIN
[1]
  MIC: 0.18 µg/mL
[2]
  MIC: 0.78 µg/mL
[3]
  MIC: 0.39 µg/mL

## O=C1C(Cl)=C(Nc2ccc(O)cc2)C(=O)c2ccccc21
[4]
  MIC: 1.56 µg/mL (≈ 5.2 µM)
[5]
  MIC: 0.78 µg/mL (≈ 2.6 µM)
[6]
  MIC: 1.56 µg/mL (≈ 5.2 µM)
[7]
  MIC: 1.56 µg/mL (≈ 5.2 µM)
[8]
  MIC: 3.12 µg/mL (≈ 10.4 µM)
[9]
  MIC: 6.25 µg/mL (≈ 20.9 µM)
[1]
  MIC: > 50 µg/mL
[2]; ATCC 25923, 24 h
  MIC: 6.25 µg/mL (≈ 20.9 µM)
[3]; ATCC 27736, 24 h
  MIC: 6.25 µg/mL (≈ 20.9 µM)

## NCC[C@H](O)C(=O)N[C@@H]1C[C@H](N)[C@@H](O[C@H]2O[C@H](CN)[C@@H](O)[C@H](O)[C@H]2O)[C@H](O)[C@H]1O[C@H]1O[C@H](CO)[C@@H](O)[C@H](N)[C@H]1O [AMIKACIN]
[1]
  MIC: 1 µg/mL (≈ 1.71 µM)
[2]; ATCC 25923, 24 h
  MIC: 16 µg/mL (≈ 27.3 µM)
[3]; ATCC 27736, 24 h
  MIC: 1 µg/mL (≈ 1.71 µM)

## COc1ccc2[nH]c3c(=O)c4ccccc4c(=O)c=3sc2c1
[1]
  MIC: 25 µg/mL (≈ 80.8 µM)
[2]; ATCC 25923, 24 h
  MIC: 12.5 µg/mL (≈ 40.4 µM)
[3]; ATCC 27736, 24 h
  MIC: > 50 µg/mL

## COc1cccc(SC2=C(N(c3ccccc3)c3ccccc3)C(=O)c3ccccc3C2=O)c1
[1]
  MIC: > 50 µg/mL
[2]; ATCC 25923, 24 h
  MIC: 25 µg/mL (≈ 53.9 µM)
[3]; ATCC 27736, 24 h
  MIC: 50 µg/mL (≈ 108 µM)
